Measurements published in article PMC12386980, “Functional Analysis of NPC2 in Alarm Pheromone Recognition by the Red Imported Fire Ant, Solenopsis invicta (Formicidae: Solenopsis)” (Insects, 2025).

What was measured:
[1] = target: T1, SinvNPC2a (Solenopsis invicta, UniProt Z9QIP2HJ34); assay: fluorescence competitive binding assay, 1-NPN displacement
T1 construct: recombinant from pET28a in E. coli BL21(DE3) pLysS, soluble, Ni-IDA purified

[2] = target: T1, SinvNPC2a; assay: as above; remark: listed apart in the source

T1 sequence (Z9QIP2HJ34 21-153 limits assumed): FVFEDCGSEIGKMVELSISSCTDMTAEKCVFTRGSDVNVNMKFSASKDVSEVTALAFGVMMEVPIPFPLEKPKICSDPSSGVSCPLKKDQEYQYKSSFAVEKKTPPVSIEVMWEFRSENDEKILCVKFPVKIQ

For CCc1nc(C)cnc1C [EDMP, 2-ethyl-3,6-dimethylpyrazine], the Ki [1] was 5.09 ± 1.51 µM and the IC50 [2] was 9.82 µM.
